According to ChEMBL document CHEMBL5137113, “Identification of Nitric Oxide-Donating Ripasudil Derivatives with Intraocular Pressure Lowering and Retinal Ganglion Cell Protection Activities” (J Med Chem, 2022):
Activity calls are given as the source filed them.

Experiments:
[1] = target: Rho-associated protein kinase 1 (Homo sapiens, UniProt Q13464); assay: Inhibition of ROCK1 (unknown origin) using biotin as substrate incubated for 1 hr by HTRF assay
[2] = target: Rho-associated protein kinase 2 (Homo sapiens, UniProt O75116); assay: Inhibition of ROCK2 (unknown origin) using biotin as substrate incubated for 1 hr by HTRF assay
Rho-associated protein kinase 2, sequence (O75116 whole entry): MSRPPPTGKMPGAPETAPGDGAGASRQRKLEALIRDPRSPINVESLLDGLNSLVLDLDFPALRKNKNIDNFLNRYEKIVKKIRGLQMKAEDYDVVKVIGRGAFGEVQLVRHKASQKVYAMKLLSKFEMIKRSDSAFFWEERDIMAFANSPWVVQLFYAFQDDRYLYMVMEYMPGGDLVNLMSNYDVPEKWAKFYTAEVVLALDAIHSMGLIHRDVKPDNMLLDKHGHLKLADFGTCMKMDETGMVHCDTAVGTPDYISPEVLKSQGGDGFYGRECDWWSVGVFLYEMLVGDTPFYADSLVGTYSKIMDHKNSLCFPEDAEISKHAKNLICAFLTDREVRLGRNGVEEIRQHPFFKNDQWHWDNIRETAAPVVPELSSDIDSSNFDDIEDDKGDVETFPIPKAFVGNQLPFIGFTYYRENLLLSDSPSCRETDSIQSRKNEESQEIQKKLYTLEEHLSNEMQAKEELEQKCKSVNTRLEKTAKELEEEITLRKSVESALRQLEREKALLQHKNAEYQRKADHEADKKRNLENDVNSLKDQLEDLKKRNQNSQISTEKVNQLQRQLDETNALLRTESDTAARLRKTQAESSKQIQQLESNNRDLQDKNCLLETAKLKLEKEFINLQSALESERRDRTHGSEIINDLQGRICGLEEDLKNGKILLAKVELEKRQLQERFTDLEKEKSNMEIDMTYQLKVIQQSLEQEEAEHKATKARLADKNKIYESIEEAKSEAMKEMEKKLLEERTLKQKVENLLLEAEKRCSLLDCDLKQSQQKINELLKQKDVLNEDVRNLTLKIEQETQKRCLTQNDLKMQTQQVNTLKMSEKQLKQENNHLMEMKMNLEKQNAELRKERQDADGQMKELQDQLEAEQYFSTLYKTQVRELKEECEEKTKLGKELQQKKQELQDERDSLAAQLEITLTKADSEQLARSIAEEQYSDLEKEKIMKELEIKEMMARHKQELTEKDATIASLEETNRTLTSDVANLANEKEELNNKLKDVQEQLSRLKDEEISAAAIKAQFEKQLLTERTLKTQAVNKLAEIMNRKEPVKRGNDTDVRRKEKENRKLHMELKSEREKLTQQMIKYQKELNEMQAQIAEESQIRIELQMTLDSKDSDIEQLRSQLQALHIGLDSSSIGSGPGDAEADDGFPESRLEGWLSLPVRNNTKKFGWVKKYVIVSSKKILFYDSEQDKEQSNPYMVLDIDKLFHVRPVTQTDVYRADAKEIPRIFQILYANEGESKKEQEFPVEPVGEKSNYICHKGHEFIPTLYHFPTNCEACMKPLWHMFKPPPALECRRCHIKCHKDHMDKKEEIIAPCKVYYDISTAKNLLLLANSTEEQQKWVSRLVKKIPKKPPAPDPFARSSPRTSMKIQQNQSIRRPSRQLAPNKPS

HTM [3] = assay: Induction of NO release in HTM cells assessed as increase in positive area by DAF-FM DA dye based flow cytometry analysis; assay type: functional, cell-based; details: Homo sapiens
HTM [4] = assay: Effect of compound on intracellular cGMP concentration in HTM cells assessed as increase in cGMP level at 10 uM incubated for 24 hrs by ELISA; assay type: functional, cell-based; details: Homo sapiens
HTM [5] = assay: Induction of NO release in HTM cells assessed as increase in fluorescence intensity by DAF-FM DA dye based flow cytometry analysis; assay type: functional, cell-based; details: Homo sapiens
HTM [6] = assay: Effect on MLC expression in HTM cells assessed as reduction in phosphorylated MLC/MLC ratio at 10 uM incubated for 1 hr by densitometry analysis; assay type: functional, cell-based; details: Homo sapiens
HTM [7] = assay: Induction of reversible F-actin depolymerization in HTM cells assessed as irregular arrangement of fiber bundles at 10 uM incubated for 1 hr and further incubated for 4 hrs in drug free medium by rhodamine phalloidin staining based confocal scanning microscopic analysis; assay type: cell-based; details: Homo sapiens
HTM [8] = assay: Downregulation of phosphorylated MLC expression in HTM cells at 10 uM incubated for 1 hr by Western blotting analysis; assay type: functional, cell-based; details: Homo sapiens
[9] = Ocular toxicity in C57BL/6J mouse assessed as effect on conjunctival hyperemia at 0.07% solution administered via topical instillation and measured at 1 to 4 hrs post instillation in presence of ripasudil; details: in vivo, topical_or_ocular, time 1-4 hrs, route top
Mus musculus [10] = assay: Antiglaucoma activity in microspheres induced chronic ocular hypertension C57BL/6J mouse model assessed as reduction in intraocular pressure at 0.07% solution administered via topical instillation for three times per day and measured at 1 to 6 hrs post instillation in presence of ripasudil by ophthalmotonometer; assay type: functional, organism-based; details: route top, time 1-6 hrs
HTM [11] = assay: Inhibtion of mitochondrial respiration in HTM cells assessed as oxygen consumption rate by measuring decrease in ATP production at 10 uM incubated for 1 hr by Seahorse XF24 extracellular flux analyzer; assay type: functional, cell-based; details: Homo sapiens
Mus musculus [12] = assay: Antiglaucoma activity in microspheres induced chronic ocular hypertension C57BL/6J mouse model assessed as reduction in intraocular pressure at 0.2% solution administered via topical instillation for three times per day and measured at 1 to 6 hrs post instillation by ophthalmotonometer; assay type: functional, organism-based; details: route top, time 1-6 hrs
HTM [13] = assay: Inhibtion of mitochondrial respiration in HTM cells assessed as oxygen consumption rate by measuring decrease in basal respiration at 10 uM incubated for 1 hr by Seahorse XF24 extracellular flux analyzer; assay type: functional, cell-based; details: Homo sapiens
[14] = Ocular toxicity in C57BL/6J mouse assessed as effect on conjunctival hyperemia at 0.2% solution administered via topical instillation and measured at 1 to 4 hrs post instillation; details: in vivo, topical_or_ocular, time 1-4 hrs, route top
HTM [15] = assay: Inhibtion of mitochondrial respiration in HTM cells assessed as oxygen consumption rate by measuring decrease in maximal respiration at 10 uM incubated for 1 hr by Seahorse XF24 extracellular flux analyzer; assay type: functional, cell-based; details: Homo sapiens
HTM [16] = assay: Inhibtion of mitochondrial respiration in HTM cells assessed as repression of oxygen consumption rate at 10 uM incubated for 1 hr by Seahorse XF24 extracellular flux analyzer; assay type: functional, cell-based; details: Homo sapiens
HTM [17] = assay: Inhibtion of mitochondrial respiration in HTM cells assessed as oxygen consumption rate by measuring decrease in proton leak at 10 uM incubated for 1 hr by Seahorse XF24 extracellular flux analyzer; assay type: functional, cell-based; details: Homo sapiens
HTM [18] = assay: Inhibtion of mitochondrial respiration in HTM cells assessed as oxygen consumption rate by measuring decrease in coupling efficiency at 10 uM incubated for 1 hr by Seahorse XF24 extracellular flux analyzer; assay type: functional, cell-based; details: Homo sapiens
Mus musculus [19] = assay: Antiglaucoma activity in microspheres induced chronic ocular hypertension C57BL/6J mouse model assessed as increase in number of RGCs in retina at 0.26% solution administered via topical instillation and measured after 10 days by immunostaining based confocal microscopic analysis; assay type: functional, organism-based; details: route top, time 10.0 day
Mus musculus [20] = assay: Antiglaucoma activity in microspheres induced chronic ocular hypertension C57BL/6J mouse model assessed as increase in visual acuity under maximum contrast condition at 0.26% solution administered via topical instillation and measured after 10 days by optokinetic reflex test; assay type: functional, organism-based; details: route top, time 10.0 day
Mus musculus [21] = assay: Antiglaucoma activity in microspheres induced chronic ocular hypertension C57BL/6J mouse model assessed as reduction in contrast sensitivity threshold at 0.26% solution administered via topical instillation and measured after 10 days by optokinetic reflex test; assay type: functional, organism-based; details: route top, time 10.0 day
Mus musculus [22] = assay: Antiglaucoma activity in microspheres induced chronic ocular hypertension C57BL/6J mouse model assessed as reduction in intraocular pressure at 0.26% solution administered via topical instillation for three times per day and measured at 1 to 6 hrs post instillation by ophthalmotonometer; assay type: functional, organism-based; details: route top, time 1-6 hrs
[23] = Ocular toxicity in C57BL/6J mouse assessed as effect on conjunctival hyperemia at 0.26% solution administered via topical instillation and measured at 1 to 4 hrs post instillation; details: in vivo, topical_or_ocular, time 1-4 hrs, route top
[24] = Ocular toxicity in New Zealand white albino rabbit assessed as effect on ocular irritation at 0.579% solution administered via topical instillation and measured at 1 to 4 hrs post instillation by draize's test; design: species or system Oryctolagus cuniculus; details: in vivo, topical_or_ocular, time 1-4 hrs, route top

Rho-associated protein kinase 1, sequence (Q13464 whole entry): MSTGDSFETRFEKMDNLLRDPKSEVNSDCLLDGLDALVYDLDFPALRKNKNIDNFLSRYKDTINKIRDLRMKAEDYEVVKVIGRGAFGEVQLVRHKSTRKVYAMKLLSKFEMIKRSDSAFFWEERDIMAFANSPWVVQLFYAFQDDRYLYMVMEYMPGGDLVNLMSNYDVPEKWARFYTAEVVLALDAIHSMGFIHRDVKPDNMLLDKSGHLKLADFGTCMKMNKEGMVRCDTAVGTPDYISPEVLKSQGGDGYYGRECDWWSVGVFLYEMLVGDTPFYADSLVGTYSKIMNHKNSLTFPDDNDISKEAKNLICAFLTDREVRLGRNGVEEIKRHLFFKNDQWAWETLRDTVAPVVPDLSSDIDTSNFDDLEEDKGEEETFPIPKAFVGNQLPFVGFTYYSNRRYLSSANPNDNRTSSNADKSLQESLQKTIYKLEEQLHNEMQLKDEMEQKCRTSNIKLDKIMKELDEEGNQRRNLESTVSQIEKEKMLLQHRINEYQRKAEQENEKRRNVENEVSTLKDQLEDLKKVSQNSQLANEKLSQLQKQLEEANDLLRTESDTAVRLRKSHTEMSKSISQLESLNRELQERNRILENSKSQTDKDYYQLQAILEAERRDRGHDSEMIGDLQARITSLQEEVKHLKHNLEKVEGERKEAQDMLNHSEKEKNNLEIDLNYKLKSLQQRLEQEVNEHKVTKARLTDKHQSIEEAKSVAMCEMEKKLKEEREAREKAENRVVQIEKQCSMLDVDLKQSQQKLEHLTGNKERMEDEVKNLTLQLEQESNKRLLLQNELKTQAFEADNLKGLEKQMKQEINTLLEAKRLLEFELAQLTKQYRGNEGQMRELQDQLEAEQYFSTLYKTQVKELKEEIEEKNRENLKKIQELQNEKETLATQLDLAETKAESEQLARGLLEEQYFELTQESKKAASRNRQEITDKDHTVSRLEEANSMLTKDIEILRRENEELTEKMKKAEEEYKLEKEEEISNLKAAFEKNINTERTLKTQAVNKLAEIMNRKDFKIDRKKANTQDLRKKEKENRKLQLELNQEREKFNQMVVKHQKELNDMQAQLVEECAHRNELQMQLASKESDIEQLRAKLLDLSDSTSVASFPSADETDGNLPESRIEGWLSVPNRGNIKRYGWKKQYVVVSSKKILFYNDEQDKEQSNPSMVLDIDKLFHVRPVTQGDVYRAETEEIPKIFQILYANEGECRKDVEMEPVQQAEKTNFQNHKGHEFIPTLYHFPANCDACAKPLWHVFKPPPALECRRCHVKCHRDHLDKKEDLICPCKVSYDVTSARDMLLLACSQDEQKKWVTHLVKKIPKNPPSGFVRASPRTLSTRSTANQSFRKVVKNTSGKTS

| Compound | IC50 [1] | IC50 [2] | Activity (HTM [3]) | Activity (HTM [4]) | Activity (HTM [5]) | Activity (HTM [6]) | Activity (HTM [7]) | Activity (HTM [8]) | Activity (HTM [11]) | Activity (HTM [13]) | also measured |
| --- | --- | --- | --- | --- | --- | --- | --- | --- | --- | --- | --- |
| O=[N+]([O-])OCCCCO | – | – | – | – | – | – | – | – | – | – | Activity [9]: Non-Toxic; Activity (Mus musculus [10]): Active |
| CCCCOC(=O)N1CCCN(S(=O)(=O)c2cccc3cncc(F)c23)[C@@H](C)C1 | – | – | – | – | – | – | – | – | Active | Active | Activity (HTM [15]): Active; Activity (HTM [16]): Active |
| C[C@H]1CN(C(=O)OCCCCO[N+](=O)[O-])CCCN1S(=O)(=O)c1cccc2cncc(F)c12 [listing 2 of 2 here] | – | – | Active | Active | Active | Active | Active | Active | Active | Active | Activity (HTM [15]): Active; Activity (HTM [17]): Active; Activity (HTM [18]): Active; Activity (HTM [16]): Active; Activity (Mus musculus [19]): Active; Activity (Mus musculus [20]): Active; Activity (Mus musculus [21]): Active; Activity (Mus musculus [22]): Active |
| C[C@H]1CN(C(=O)OCCO[N+](=O)[O-])CCCN1S(=O)(=O)c1cccc2cncc(F)c12 | 0.0473 µM | 0.0584 µM | Active | Active | Active | Active | Active | Active | – | – | – |

Second part, led by results:

| IC50 [1] | IC50 [2] | Compound | Activity (HTM [3]) | Activity (HTM [4]) | Activity (HTM [5]) | Activity (HTM [6]) | Activity (HTM [7]) | Activity (HTM [8]) | Activity (HTM [11]) | Activity (HTM [13]) | also measured |
| --- | --- | --- | --- | --- | --- | --- | --- | --- | --- | --- | --- |
| 0.0583 µM | 0.0474 µM | C[C@H]1CN(C(=O)OCCCCO[N+](=O)[O-])CCCN1S(=O)(=O)c1cccc2cncc(F)c12 [listing 1 of 2 here] | – | – | – | – | – | – | – | – | – |
| 0.104 µM | 0.0251 µM | C[C@H]1CN(C(=O)OCCCO[N+](=O)[O-])CCCN1S(=O)(=O)c1cccc2cncc(F)c12 | Active | Active | Active | Active | Active | Active | – | – | – |
| – | 0.0214 µM | C[C@H]1CNCCCN1S(=O)(=O)c1cccc2cncc(F)c12.Cl.O.O [RIPASUDIL HYDROCHLORIDE DIHYDRATE] | – | – | – | Active | Active | Active | Active | Active | Activity (Mus musculus [12]): Active; Activity [14]: Non-Toxic |
| 0.0446 µM | 0.0252 µM | C[C@H]1CN(C(=O)OCCCCCO[N+](=O)[O-])CCCN1S(=O)(=O)c1cccc2cncc(F)c12 | Active | Active | Active | Active | Active | Active | – | – | – |
| 0.0342 µM | 0.0166 µM | C[C@H]1CN(C(=O)OCCCCO[N+](=O)[O-])CCCN1S(=O)(=O)c1cccc2cncc(F)c12.Cl | – | – | – | – | – | – | – | – | Activity [23]: Non-Toxic; Activity [24]: Non-Toxic |
| 0.0536 µM | 0.0195 µM | C[C@H]1CN(C(=O)O[C@@H]2CO[C@H]3[C@@H]2OC[C@@H]3O[N+](=O)[O-])CCCN1S(=O)(=O)c1cccc2cncc(F)c12 | Active | Active | Active | Active | Active | Active | – | – | – |
